Among the data in article PMC6930633, “Synthesis and Biological Evaluation of BODIPY-PF-543” (Molecules, 2019) are IC50 values, retold here.

The target in the assay is T1, Sphingosine kinase 1 (SK1) (Homo sapiens, UniProt Q9NYA1).
T1 construct: gene SPHK1
The assay can be described thus: recombinant SK1 luminescent ATP-detection kinase activity assay (Echelon kit). It is filed as biochemical.

In general, IC50 refers to the midpoint of a concentration-inhibition curve.

T1 sequence (Q9NYA1 whole entry): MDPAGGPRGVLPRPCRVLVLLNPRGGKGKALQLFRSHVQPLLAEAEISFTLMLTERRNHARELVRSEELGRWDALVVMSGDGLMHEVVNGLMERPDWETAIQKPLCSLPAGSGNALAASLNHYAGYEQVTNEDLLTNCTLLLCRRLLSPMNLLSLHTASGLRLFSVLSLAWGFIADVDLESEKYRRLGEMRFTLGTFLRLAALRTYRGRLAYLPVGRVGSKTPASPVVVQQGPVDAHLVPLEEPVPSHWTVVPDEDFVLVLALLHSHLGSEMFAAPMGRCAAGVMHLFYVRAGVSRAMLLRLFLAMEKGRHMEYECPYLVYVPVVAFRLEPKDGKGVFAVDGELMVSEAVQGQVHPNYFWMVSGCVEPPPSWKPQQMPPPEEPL

With `CC1=CC(C)=[N+]2C1=C(c1ccc(-c3cn(Cc4cc(C)cc(OCc5ccc(CN6CCC[C@@H]6CO)cc5)c4)nn3)cc1)c1c(C)cc(C)n1[B-]2(F)F` [compound 2, (R)-(1-(4-((3-((4-(4-(5,5-Difluoro-1,3,7,9-tetramethyl-5H-4l4,5l4-dipyrrolo[1,2-c:2’,1’-f][1,3,2]diazaborinin-10-yl)phenyl)-1H-1,2,3-triazol-1-yl)methyl)-5-methylphenoxy)methyl)benzyl)pyrrolidin-2-yl)methanol], the half-maximal inhibitory concentration (IC50) came out at 19.9 nM.
